# Measured values published in patent US10806735B2, “Use of neutrophil elastase inhibitors in liver disease” (pH Pharma Co., Ltd., priority 2018, dated 2020).
# Read-outs that look alike come from different tables or passages of the source.
# Assays:
# [1] = Example 3: body weight of DIO mice, 4 weeks BID oral dosing; assay type: in vivo; conditions: for body weight growth rate / body weight at the end of the study: 4 weeks; for body weight growth rate: vehicle 9.2±2.0%; for body weight at the end of the study: vehicle 48.8±0.9; for body weight at baseline: baseline before treatment
# Method: Body weight was recorded prior to glucose measurement at baseline and weekly thereafter. All data are represented as group mean±SEM. Data were analyzed using Prism 7.0 (Graphpad software). All normalizations were calculated using terminal body weight. All assigned animals completed the study. […] Treatment effects compared to vehicle were determined using Oneway ANOVA (*, p<0.05; *, P<0.01) followed by Dunnett's test where appropriate.
# [2] = test system: DIO mice; test: Example 3: blood glucose in DIO mice; assay type: in vivo; conditions: for blood glucose at day 28: vehicle 143.0±7.1; for fasted blood glucose at study start: baseline before treatment
# Method: Body weight was recorded prior to glucose measurement at baseline and weekly thereafter. […] All data are represented as group mean±SEM. Data were analyzed using Prism 7.0 (Graphpad software). All normalizations were calculated using terminal body weight. All assigned animals completed the study. […] Treatment effects compared to vehicle were determined using Oneway ANOVA (*, p<0.05; *, P<0.01) followed by Dunnett's test where appropriate.
# [3] = test system: DIO mice; test: Example 2: terminal liver and epididymal fat weights in DIO mice; assay type: in vivo; conditions: 6 weeks; for epididymal fat weight (% body weight): vehicle 3.4±0.3; for liver weight (% body weight): vehicle 5.6±0.2
# Method: Animals were terminated using CO2 inhalation and induction of pneumothorax. Four mice from each treatment group were sacrificed at 0.5 hr post dose and four were sacrificed at 4 hours post dose. […] Organ weights (liver, epididymal fat) were recorded. All data are represented as group mean±SEM. Data were analyzed using JMP (SAS software). All normalizations were calculated using terminal body weight. All assigned animals completed the study. […] Treatment effects compared to vehicle were determined using Oneway ANOVA (*, p<0.05) followed by Dunnett's test where appropriate.
# [4] = Solubility and hygroscopicity of the drug substance; assay type: physicochemical
# [5] = Example 2: body weight of DIO mice, 6 weeks once daily oral dosing; assay type: in vivo; conditions: for terminal body weight: after 6 weeks, mean±SEM; for body weight at baseline: baseline before treatment
# Method: (§1) Male DIO (diet-induced obesity) mice (C57BLJ6NTac DIO MPF, n=35) were purchased from Taconic Biosciences (Rensselaer, N.Y.). DIO mice were prepared by feeding male C57BL16 mice a high fat diet (HFD, D12492; Research Diets, Inc., New Brunswick, N.J.) from 6-16 weeks of age. A twelve-hour light cycle was maintained throughout study duration. Room temperature was monitored daily and maintained at 22-25° C. DIO mice were housed individually and maintained on the HFD during a 7-day facility acclimation period and throughout the study period. All mice were administered vehicle (5% DMSO/3% ethanol/92% peanut oil) once daily during the acclimation period.
# (§2) Compounds were administered once daily in the morning by oral gavage for 6 weeks. Dose volume was maintained at 5 ml/kg throughout the study.
# (§3) Whole blood was obtained weekly from fed animals by tail clip for measurement of non-fasted blood glucose (StatStrip; Nova Biomedical, Waltham, Mass.) on day 7, day 14, day 21 and day 35 after first dosing. Body weight was recorded prior to glucose measurement at baseline and weekly thereafter. Oral glucose tolerance tests were performed in fasted mice at baseline (day −1), day 28 and day 42 thereafter. […] At the end of the 6-hour fasting period, mice were challenged with glucose (2 g/kg, 10 ml/kg, by oral gavage). Blood samples were obtained by tail clip at 0, 20, 40, 60, 90 and 120 minutes post-glucose load for assessment of blood glucose by StatStrip. Serum insulin was measured from time 0 blood samples of OGTT using the Mouse/Rat Insulin Kit (MSD #K152BZC; Meso Scale Diagnostics, Rockville, Md.).
# (§4) All data are represented as group mean±SEM. Data were analyzed using JMP (SAS software). All normalizations were calculated using terminal body weight. […] Treatment effects compared to vehicle were determined using Oneway ANOVA (*, p<0.05) followed by Dunnett's test where appropriate.
# [6] = non-CF BE patients, 28 days, cited from earlier work
# [7] = healthy subjects, cited from earlier work
# [8] = test system: DIO mice; test: Example 2: oral glucose tolerance test (OGTT) in DIO mice; assay type: in vivo; conditions: for decrease of glucose AUC on day 42 compared to baseline: vehicle 12.6±10.3%; for OGTT glucose AUC on day 42: vehicle 27.8±1.2; for OGTT glucose AUC on day 28: vehicle 27.9±1.1; for OGTT glucose AUC at baseline: day −1 before treatment
# Method: as §1, §2, §3, §4
# [9] = Example 4: Phase 1 single-ascending dose study in healthy subjects, pharmacokinetics; assay type: in vivo, human; conditions: single doses 1 to 40 mg
# [10] = test system: DIO mice; test: Example 3: fasted serum insulin in DIO mice; assay type: in vivo; conditions: for fasted serum insulin on day 28: vehicle 7.7±1.6; for fasted serum insulin at baseline: baseline before treatment
# Method: (§5) All data are represented as group mean±SEM. Data were analyzed using Prism 7.0 (Graphpad software). All normalizations were calculated using terminal body weight. All assigned animals completed the study. […] Treatment effects compared to vehicle were determined using Oneway ANOVA (*, p<0.05; *, P<0.01) followed by Dunnett's test where appropriate.
# [11] = test system: DIO mice; test: Example 2: fasted serum insulin in DIO mice; assay type: in vivo; conditions: for fasted serum insulin on day 42: vehicle 8.2±1.5; for fasted serum insulin at baseline: baseline before treatment
# Method: as §1, §2, §3, §4
# [12] = test system: DIO mice; test: Example 2: blood glucose (fasted and fed) in DIO mice; assay type: in vivo; conditions: for fed glucose on day 35: vehicle 134.5±6.9; for fasted blood glucose at study start: baseline before treatment
# Method: as §1, §2, §3, §4
# [13] = test system: DIO mice; test: Example 3: oral glucose tolerance test (OGTT) in DIO mice; assay type: in vivo; conditions: for OGTT glucose AUC on day 28: vehicle 25.5±1.4; for OGTT glucose AUC at baseline: day −1 before treatment
# Method: as §5
# [14] = Example 4: Phase 1 single-ascending dose study in healthy subjects, safety; conditions: single doses 1 to 40 mg
# Text: Following Screening, subjects received single doses of study drug and were monitored during an in-clinic period and an out-patient follow-up period. Subjects were confined to the study site for Study Days −2 through 7 to collect PK and safety assessments. Following discharge from the study site on Study Day 7, subjects returned to the study site on Study Days 14, 21, 28, and 35.
# [15] = test system: HFD-fed mice; conditions: cited from earlier work
smiles,measurement,setting,value
"CC1=C(C#N)[C@@H](c2ccc(C#N)cc2S(C)(=O)=O)N(C)C(=O)N1c1cccc(C(F)(F)F)c1 [Compound 1, (4S)-4-[4-cyano-2-(methylsulfonyl)phenyl]-3,6-dimethyl-2-oxo-1-[3-(trifluoromethyl)phenyl]-1,2,3,4-tetrahydropyrimidine-5-carbonitrile]",body weight growth rate,[1]; 15 mg/kg BID PO,5.9±1.6%
same,body weight at the end of the study,[1]; 15 mg/kg BID PO,47.5 ± 1.3 g
same,body weight growth rate,[1]; 30 mg/kg BID PO,2.8±2.3%
same,body weight at the end of the study,[1]; 30 mg/kg BID PO,46.0 ± 1.2 g
same,body weight at baseline,[1]; group assigned to 15 mg/kg BID,44.8 ± 0.7 g
same,body weight at baseline,[1]; group assigned to 30 mg/kg BID,44.8 ± 0.7 g
same,blood glucose at day 28,[2]; 15 mg/kg BID PO,151.9 ± 6.1 mg/dL
same,blood glucose at day 28,[2]; 30 mg/kg BID PO,137.3 ± 4.1 mg/dL
same,fasted blood glucose at study start,[2]; group assigned to 15 mg/kg BID,185.1 ± 8.3 mg/dL
same,fasted blood glucose at study start,[2]; group assigned to 30 mg/kg BID,180.1 ± 7.0 mg/dL
same,epididymal fat weight (% body weight),[3]; 3 mg/kg/day PO,3.1±0.3%
same,liver weight (% body weight),[3]; 3 mg/kg/day PO,6.8±0.3%
same,epididymal fat weight (% body weight),[3]; 15 mg/kg/day PO,3.5±0.2%
same,liver weight (% body weight),[3]; 15 mg/kg/day PO,6.4±0.2%
same,solubility in acetone,[4]; acetone,soluble
same,solubility in ethanol,[4]; ethanol,very slightly soluble
same,hygroscopicity,[4]; normal storage conditions,not hygroscopic
same,solubility in water,[4]; water,practically insoluble
same,terminal body weight,[5]; 3 mg/kg/day PO,49.8 ± 0.9 g
same,growth rate of body weight,"[5]; 15 mg/kg/day PO, 6 weeks, vehicle 14±1.8%",6.9±1.8%
same,terminal body weight,[5]; 15 mg/kg/day PO,47.3 ± 1.1 g
same,body weight at baseline,[5]; group assigned to 3 mg/kg/day,42.8 ± 1.1 g
same,body weight at baseline,[5]; group assigned to 15 mg/kg/day,42.8 ± 1.0 g
same,safety and tolerability,[6]; 1.0 mg oral IR tablet,generally safe and well tolerated
same,SAEs attributed to the drug,[6]; 1.0 mg oral,no SAEs were attributed by the investigator to the drug
same,study drug-induced laboratory parameter or ECG effects,[6]; 1.0 mg oral,No safety signals
same,safety and tolerability,[7]; single and repeated doses up to 1 mg for up to 14 days,safe and well tolerated
same,serious adverse events (SAEs),[7]; three Phase 1 studies,no serious AEs (SAEs) were reported
same,study drug-induced laboratory or ECG abnormalities,[7]; three Phase 1 studies,No safety signals
same,decrease of glucose AUC on day 42 compared to baseline,[8]; 3 mg/kg PO,20.0±4.5%
same,OGTT glucose AUC on day 42,[8]; 3 mg/kg/day PO,28.6±0.7 mg/dL/min×10^3
same,OGTT glucose AUC on day 28,[8]; 3 mg/kg/day PO,24.0±0.9 mg/dL·min×10^3
same,decrease of glucose AUC on day 42 compared to baseline,[8]; 15 mg/kg PO,−21.9±5.0%
same,OGTT glucose AUC on day 42,[8]; 15 mg/kg/day PO,26.3±1.1 mg/dL/min×10^3
same,OGTT glucose AUC on day 28,[8]; 15 mg/kg/day PO,22.7±0.7 mg/dL·min×10^3
same,OGTT glucose AUC at baseline,[8]; group assigned to 3 mg/kg/day,36.3±2.0 mg/dL·min×10^3
same,OGTT glucose AUC at baseline,[8]; group assigned to 15 mg/kg/day,34.4±2.2 mg/dL·min×10^3
same,exposure (AUC and Cmax) versus dose,[9],proportional increases in exposure (AUC and Cmax) with dose
same,fasted serum insulin on day 28,[10]; 15 mg/kg BID PO,5.8 ± 1.4 ng/mL
same,fasted serum insulin on day 28,[10]; 30 mg/kg BID PO,4.0 ± 0.3 ng/mL
same,fasted serum insulin at baseline,[10]; group assigned to 15 mg/kg BID,7.0 ± 1.1 ng/mL
same,fasted serum insulin at baseline,[10]; group assigned to 30 mg/kg BID,4.9 ± 0.6 ng/mL
same,fasted serum insulin on day 42,[11]; 3 mg/kg/day PO (low dose),11.8 ± 1.3 ng/mL
same,fasted serum insulin on day 42,[11]; 15 mg/kg/day PO (higher dose),5.9 ± 1.5 ng/mL
same,fasted serum insulin at baseline,[11]; group assigned to 3 mg/kg/day,3.5 ± 0.5 ng/mL
same,fasted serum insulin at baseline,[11]; group assigned to 15 mg/kg/day,5.4 ± 1.0 ng/mL
same,fed glucose on day 35,[12]; 3 mg/kg/day PO,128.3 ± 3.4 mg/dL
same,decrease of fasting glucose from baseline,"[12]; 15 mg/kg/day PO, 6 weeks",11%
same,fed glucose on day 35,[12]; 15 mg/kg/day PO,134.9 ± 4.7 mg/dL
same,fasted blood glucose at study start,[12]; group assigned to 3 mg/kg/day,160.3 ± 5.7 mg/dL
same,fasted blood glucose at study start,[12]; group assigned to 15 mg/kg/day,164.6 ± 7.3 mg/dL
same,OGTT glucose AUC on day 28,[13]; 15 mg/kg BID PO,24.7±1.9 mg/dL·min×10^3
same,OGTT glucose AUC on day 28,[13]; 30 mg/kg BID PO,22.4±1.0 mg/dL·min×10^3
same,OGTT glucose AUC at baseline,[13]; group assigned to 15 mg/kg BID,33.8±0.9 mg/dL-min×10^3
same,OGTT glucose AUC at baseline,[13]; group assigned to 30 mg/kg BID,32.8±1.8 mg/dL-min×10^3
same,AE rate compared with placebo subjects,[14],somewhat lower than that in the control (placebo) subjects
same,effects on laboratory safety evaluations (clinical chemistry and hematology),[14],no clear effects
same,"serious AEs, discontinuations, deaths",[14],no serious AEs and no discontinuations or deaths
same,occurrence of headache,[14]; 36 subjects on drug,only observed in one Compound 1 subject
CC(C)[C@@H]1C(=O)N(S(C)(=O)=O)[C@@H]2CCN(C(=O)/C=C/CN3CCCCC3)[C@H]21.Cl [GW311616A],glucose tolerance,[15]; HFD mice (Talukdar 2012),improved glucose tolerance
same,insulin sensitivity in glucose clamp/tracer studies,[15]; HFD mice (Talukdar 2012),increased peripheral and hepatic insulin sensitivity
same,insulin resistance and body weight gain,[15]; HFD-fed mice (Mansuy-Aubert 2013),reversed insulin resistance and body weight gain
"CN(CCOc1ccc(CC2SC(=O)NC2=O)cc1)c1ccccn1 (stereo not drawn) [rosiglitazone, reference compound]",epididymal fat weight (% body weight),[3]; 30 mg/kg/day PO,3.7±0.2%
same,liver weight (% body weight),[3]; 30 mg/kg/day PO,5.0±0.2%
same,terminal body weight,[5]; 30 mg/kg/day PO,55.0 ± 1.4 g
same,body weight at baseline,[5]; group assigned to 30 mg/kg/day,42.8 ± 1.0 g
same,fasted serum insulin on day 42,[11]; 30 mg/kg/day PO,1.3 ± 0.1 ng/mL
same,fasted serum insulin at baseline,[11]; group assigned to 30 mg/kg/day,5.2 ± 1.1 ng/mL
same,decrease of fasting glucose compared to baseline,"[12]; 30 mg/kg/day PO, 6 weeks",23%
same,fasting glucose after 6 weeks of treatment,"[12]; 30 mg/kg/day PO, 6 weeks",125.8 ± 4.8 mg/dL
same,fed glucose on day 35,[12]; 30 mg/kg/day PO,125.5 ± 4.5 mg/dL
same,fasted blood glucose at study start,[12]; group assigned to 30 mg/kg/day,164.0 ± 4.0 mg/dL
